How the values were obtained:
MM.1S cells = experiment: Combination XTT assay, Chou-Talalay, MM.1S; format: cell-based, human; parameters: key: CI <1 synergism, =1 additive, >1 antagonism (Chou-Talalay); conditions: 48 h
Procedure: (§1) Combinations of novel and/or conventional anti-MM agents may achieve higher clinical response rates than a single agent(s).
(§2) CI value <1, =1, >1 indicates synergism, additive effect, and antagonism, respectively, (n=3 independent experiments). The CI values were calculated by the Chou-Talalay method based on the median-effect equation and the classic isobologram equation [22], using compusyn computer software.

RPMIS cells = experiment: Combination XTT assay, Chou-Talalay, RPMIS; format: cell-based, human; parameters: key: CI <1 synergism, =1 additive, >1 antagonism (Chou-Talalay); conditions: 48 h
Procedure: as §1, §2

[1] = system: human multiple myeloma (MM) cell lines; experiment: Cell viability XTT assay, MM cell lines; format: cell-based; conditions: each MM cell line
Procedure: The following panel of human multiple myeloma (MM) cell lines was used: RPMI-S (ATCC® CCL-155), RPMI-LR5, RPMI-MR20, MM.1S (ATCC® CRL-2974). OPM1, OPM-2, U266 ATCC® TIB-196 and CAG. The human immortalized bone marrow stromal cell (BMSC) line HS-5 was obtained from ATCC® CRL-11882. MM cell lines were grown in RPMI and HS-5 in DMEM, supplemented with 10% fetal calf serum, 2 mM L-glutamine, 100 units/mL penicillin and 100 μg/mL streptomycin (Biological Industries, Beit Haemek, Israel), and incubated in a humidified atmosphere of 5% CO2 and 95% air at 37° C.
MM cell lines were plated at a density of 2×10^4 cells per well in 96-wells and treated with different concentrations of STK405759. For patient samples, bone marrow aspirates from MM patients were collected, mononuclear cells were separated by Ficoll density gradient centrifugation and myeloma cells selected using CD138 microbeads (Miltenyi Biotec). Purified CD138^+ cells from patients were plated at a density of 2×10^4 cells per well and treated for 48 h with different concentrations of STK405759. Peripheral blood samples were processed by Ficoll density gradient centrifugation to isolate peripheral blood mononuclear cells (PBMCs). […] Cell viability was measured using XTT cell proliferation Kit (Biological Industries) according to manufacture instructions. […]

[2] = system: affinity-purified CD138+ cells from bone marrow samples of MM patients; experiment: Cell viability XTT assay, primary patient MM cells; format: cell-based, human; conditions: 2 MM patients, 48 h
Procedure: (§3) MM cell lines were plated at a density of 2×10^4 cells per well in 96-wells and treated with different concentrations of STK405759. For patient samples, bone marrow aspirates from MM patients were collected, mononuclear cells were separated by Ficoll density gradient centrifugation and myeloma cells selected using CD138 microbeads (Miltenyi Biotec). Purified CD138^+ cells from patients were plated at a density of 2×10^4 cells per well and treated for 48 h with different concentrations of STK405759. Peripheral blood samples were processed by Ficoll density gradient centrifugation to isolate peripheral blood mononuclear cells (PBMCs). PBMCs were plated at 2×10^4 cells per well and exposed to different concentrations of STK405759 for 48 h. Cell viability was measured using XTT cell proliferation Kit (Biological Industries) according to manufacture instructions.

[3] = system: peripheral blood mononuclear cells (PBMCs); experiment: Cell viability XTT assay, PBMCs; format: cell-based, human; conditions: PBMC from the same patients and from healthy donors, 48 h
Procedure: as §3

[4] = system: HS-5 bone marrow stromal cells; experiment: CFSE/PI FACS viability in co-culture, stromal cells; format: cell-based, human; conditions: 48 h
Procedure: FIGS. 2A-D are graphs showing that STK405759 overcomes the growth stimulatory effect of BMSCs. IL-6 or IGF-1 on MM cell growth. FIG. 2A-B—RPMIS cells were stained with CFSE, co-cultured with HS-5 and exposed to STK405759 (70 nM) for 48 h. The cells were contrastained with PI to distinguish live from nonviable cells using FACS analysis. The values of the fraction of nonviable (CFSE^−PI^+) HS-5 cells within the entire population of HS-5 cells (CFSE^−) cultured alone or with RPMIS cells, and the fraction of (CFSE^+PI^+) RPMIS cells within the entire population of RPMIS cells (CFSE) cultured alone or with HS-5 cells are presented as a function of the STK405759 concentrations. FIGS. 2C-D—RPMIS cells were cultured for 48 hours at the indicated concentrations of STK405759 in the presence or absence of IL-6 (5 or 10 ng/ml) or IGF-1 (10 or 30 ng/ml). Data presented are from three independent experiments and presented as means±SE.
Since BMSC trigger and maintain MM cell homing, proliferation, and drug resistance, the present inventors have assessed whether MM cell sensitivity to STK405759 is attenuated by co-culture with bone marrow stromal cells. In order to quantify viability of MM cells cultured alone or co-cultured with HS-5 bone marrow stromal cells. MM cells were stained with CFSE. […]

RPMIS MM cells = experiment: Xenograft murine model; format: in vivo, SCID mice; conditions: 0.5 mg/kg i.p.; not reached after follow-up of 60 days; control 28 days
Procedure: RPMIS cells (7×10^6 mouse in 100 μl of PBS) were injected subcutaneously in SCID mice. Mice (n=10 per group) received STK405759 (0.5 mg/kg in 0.1 ml PBS) or control vehicle (0.1 ml PBS), by intraperitoneal (i.p.) administration once a day for 5 days. FIG. 6A—Tumor diameters were measured every 2-3 days with caliper, and tumor volumes were calculated using the formula of the volume of an ellipse: ½ (length×width^2). […] FIG. 6B—Kaplan-Meier analysis of overall survival confirmed that STK405759 increased survival compared with control mice. […] FIG. 6D—Induction of apoptosis and cell death in tumors excised from vehicle or STK405759 (0.5 mg/kg) treated animals are shown by TUNEL assay. Photomicrographs show apoptotic cells (brown) using light microscopy (×20 and ×40 magnification).
Male SCID mice (6-8 week old) were maintained in accordance with Institutional Animal Care Use Committee guidelines. […]
Mice were monitored every 2-3 d for changes in body weight and tumor burden. Tumor volumes were measured by a caliper every alternate day and calculated using the following formula: length×width^2×0.5. […] Following sacrifice, tumors were immediately collected and evaluated for induction of apoptosis and cell death by TdT-mediated dUTP nick end labeling (TUNEL) assay.

[5] = Xenograft murine model, body weight and toxicity; format: in vivo; conditions: 0.5 mg/kg i.p., during treatment
Procedure: Mice were monitored every 2-3 d for changes in body weight and tumor burden. Tumor volumes were measured by a caliper every alternate day and calculated using the following formula: length×width^2×0.5. Mice were sacrificed in accordance with institutional guidelines when tumors reached 1.5 cm^3 or if the mice appeared moribund, to prevent unnecessary morbidity to the mice. Following sacrifice, tumors were immediately collected and evaluated for induction of apoptosis and cell death by TdT-mediated dUTP nick end labeling (TUNEL) assay.

CC(C)C[C@H](NC(=O)[C@H](Cc1ccccc1)NC(=O)c1cnccn1)B(O)O [BTZ, bortezomib]
Combination Index (MM.1S cells; STK405759 45 nM + BTZ 1 nM): 0.62 ± 0.14
Combination Index (MM.1S cells; STK405759 45 nM + BTZ 5 nM): 0.58 ± 0.02
Combination Index (RPMIS cells; STK405759 45 nM + BTZ 1 nM): 0.88 ± 0.02
Combination Index (RPMIS cells; STK405759 45 nM + BTZ 5 nM): 0.78 ± 0.08

C[C@@H]1C[C@H]2[C@@H]3CCC4=CC(=O)C=C[C@]4(C)[C@@]3(F)[C@@H](O)C[C@]2(C)[C@@]1(O)C(=O)CO [DEX, dexamethasone]
Combination Index (MM.1S cells; STK405759 45 nM + DEX 1 nM): 0.76 ± 0.15
Combination Index (MM.1S cells; STK405759 45 nM + DEX 5 nM): 0.63 ± 0.09
Combination Index (RPMIS cells; STK405759 45 nM + DEX 1 nM): 0.76 ± 0.06
Combination Index (RPMIS cells; STK405759 45 nM + DEX 5 nM): 0.84 ± 0.03

COc1cccc2c1C(=O)c1c(O)c3c(c(O)c1C2=O)C[C@@](O)(C(=O)CO)C[C@@H]3O[C@H]1C[C@H](N)[C@H](O)[C@H](C)O1 [DOXO, doxorubicin]
Combination Index (MM.1S cells; STK405759 45 nM + DOXO 10 nM): 1.30 ± 0.06
Combination Index (MM.1S cells; STK405759 45 nM + DOXO 30 nM): 1.54 ± 0.08
Combination Index (RPMIS cells; STK405759 45 nM + DOXO 10 nM): 1.44 ± 0.01
Combination Index (RPMIS cells; STK405759 45 nM + DOXO 30 nM): 1.63 ± 0.10

Nc1cccc2c1CN(C1CCC(=O)NC1=O)C2=O (stereo not shown) [LEN, lenalidomide]
Combination Index (MM.1S cells; STK405759 45 nM + LEN 5 μM): 0.62 ± 0.09
Combination Index (MM.1S cells; STK405759 45 nM + LEN 25 μM): 0.58 ± 0.09
Combination Index (RPMIS cells; STK405759 45 nM + LEN 5 μM): 0.77 ± 0.09
Combination Index (RPMIS cells; STK405759 45 nM + LEN 25 μM): 0.74 ± 0.05

CCCCCOC(=O)c1[nH]c2c(c1C)C(=O)CC(c1ccco1)C2 (stereo not shown) [STK405759]
IC50 [1]: < 44 nM
cytotoxic response of primary MM cells [2]: dose-dependent cytotoxic response
cytotoxic effect on PBMC [3]: non responsive to the cytotoxic effect
viability of HS-5 stromal cells [4]: unaffected
median overall survival (RPMIS MM cells): > 60 days
changes in weight or other signs of potential toxicity [5]: No significant changes

From US9782387B2, “Compositions and methods for treating hematological malignancies” (Tel HaShomer Medical Research Infrastructure and Services …, priority 2013, dated 2017)
